What was measured:
TBK1 = target: T1, TBK1 (Homo sapiens, UniProt Q9UHD2); test: TBK1 inhibition, ADP-Glo Kinase Assay; assay type: biochemical; settings: luminometer
T1 construct: purchased Promega V3991
T1 sequence (Q9UHD2 1-729): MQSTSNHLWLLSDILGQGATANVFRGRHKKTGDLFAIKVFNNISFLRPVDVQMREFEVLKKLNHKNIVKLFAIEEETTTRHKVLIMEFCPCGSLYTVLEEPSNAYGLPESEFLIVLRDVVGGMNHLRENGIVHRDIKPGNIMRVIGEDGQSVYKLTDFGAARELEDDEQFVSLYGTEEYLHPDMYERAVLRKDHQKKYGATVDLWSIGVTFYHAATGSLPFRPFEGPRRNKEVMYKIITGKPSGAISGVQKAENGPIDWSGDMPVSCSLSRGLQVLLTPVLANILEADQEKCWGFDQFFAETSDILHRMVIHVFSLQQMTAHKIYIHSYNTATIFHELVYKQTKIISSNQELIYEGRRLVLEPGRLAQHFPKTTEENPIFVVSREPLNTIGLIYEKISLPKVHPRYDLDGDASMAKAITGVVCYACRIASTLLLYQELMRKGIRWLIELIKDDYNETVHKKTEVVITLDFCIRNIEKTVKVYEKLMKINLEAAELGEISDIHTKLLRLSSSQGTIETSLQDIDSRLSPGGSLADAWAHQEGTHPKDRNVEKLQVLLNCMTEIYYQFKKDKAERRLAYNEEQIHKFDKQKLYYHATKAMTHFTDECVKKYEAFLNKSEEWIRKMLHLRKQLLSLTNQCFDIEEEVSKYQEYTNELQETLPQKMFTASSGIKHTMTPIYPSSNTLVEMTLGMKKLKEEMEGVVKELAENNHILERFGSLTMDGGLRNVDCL
Summary of the method: (§1)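 ADP-Glo luminescence reported ADP produced by each kinase, following the kit protocol. Reactions used commercial kinase enzyme systems in buffer of 40 mM Tris (pH 7.5), 20 mM MgCl2 and 0.1 mg/mL BSA.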

IKKε = target: T2, IKKε (Homo sapiens, UniProt Q14164); test: IKKε inhibition, ADP-Glo Kinase Assay; assay type: biochemical; settings: luminometer
T2 construct: purchased Invitrogen PR8031B
T2 sequence (Q14164 1-716): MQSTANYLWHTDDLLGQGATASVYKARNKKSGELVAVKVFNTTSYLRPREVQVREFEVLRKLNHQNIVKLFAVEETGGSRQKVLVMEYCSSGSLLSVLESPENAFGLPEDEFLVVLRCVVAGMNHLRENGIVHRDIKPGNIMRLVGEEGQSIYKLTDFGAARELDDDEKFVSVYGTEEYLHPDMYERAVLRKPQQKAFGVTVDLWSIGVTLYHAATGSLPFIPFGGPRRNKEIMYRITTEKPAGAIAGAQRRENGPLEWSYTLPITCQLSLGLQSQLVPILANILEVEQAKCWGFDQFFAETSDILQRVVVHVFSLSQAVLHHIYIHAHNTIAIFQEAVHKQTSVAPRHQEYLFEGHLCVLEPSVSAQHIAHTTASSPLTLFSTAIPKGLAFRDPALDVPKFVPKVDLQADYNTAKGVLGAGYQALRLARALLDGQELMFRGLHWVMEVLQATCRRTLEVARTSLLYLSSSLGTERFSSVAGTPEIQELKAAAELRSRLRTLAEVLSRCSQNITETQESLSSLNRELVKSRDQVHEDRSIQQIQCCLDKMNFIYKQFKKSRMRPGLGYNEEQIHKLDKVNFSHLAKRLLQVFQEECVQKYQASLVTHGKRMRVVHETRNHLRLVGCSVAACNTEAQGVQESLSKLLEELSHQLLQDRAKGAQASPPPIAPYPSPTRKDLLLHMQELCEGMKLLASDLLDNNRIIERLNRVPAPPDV
Summary of the method: as §1

## CCC(NC(=O)c1ccc2[nH]nc(NC(=O)c3ccc(N4CCNCC4)cc3)c2c1)c1ccccc1 (stereo not drawn) [Example 41, N-(1-Phenylpropyl)-3-(4-(piperazin-1-yl)benzamido)-1H-indazole-5-carboxamide]
TBK1
  IC50: 0.0039 µM
IKKε
  IC50: 0.047 µM

## CC[C@@H](NC(=O)c1ccc2[nH]nc(NC(=O)c3ccc(N4CCN(C)CC4)cc3)c2c1)c1cccs1 [Example 112, (R)-3-(4-(4-Methylpiperazin-1-yl)benzamido)-N-(1-(thiophen-2-yl)propyl)-1H-indazole-5-carboxamide]
TBK1
  IC50: 0.0042 µM
IKKε
  IC50: 0.011 µM

## O=C(Nc1n[nH]c2ccc(CNCc3cccs3)cc12)c1ccc(N2CCOCC2)cc1 [Example 123]
TBK1
  IC50: 0.66 µM
IKKε
  IC50: 4.47 µM

## CC1CN(c2ccc(C(=O)Nc3n[nH]c4ccc(C(=O)NCc5cccs5)cc34)cc2)CC(C)O1 (stereo not drawn) [Example 92, 3-(4-(2,6-Dimethylmorpholino)benzamido)-N-(thiophen-2-ylmethyl)-1H-indazole-5-carboxamide 2,2,2-trifluoroacetate]
TBK1
  IC50: 0.007 µM
IKKε
  IC50: 0.065 µM

## O=C(NCc1cccs1)c1ccc2[nH]nc(NC(=O)c3ccc(NCCC4=CCCCC4)cc3)c2c1 [Example 167, 3-(4-((2-(Cyclohex-1-en-1-yl)ethyl)amino)benzamido)-N-(thiophen-2-ylmethyl)-1H-indazole-5-carboxamide]
TBK1
  IC50: 1.1 µM
IKKε
  IC50: 3.9 µM

## CC(NC(=O)c1ccc2[nH]nc(NC(=O)c3ccc(N4CCOCC4)cc3)c2c1)c1cccs1 (stereo not drawn) [Example 43, 3-(4-Morpholinobenzamido)-N-(1-(thiophen-2-yl)ethyl)-1H-indazole-5-carboxamide]
TBK1
  IC50: 0.0021 µM
IKKε
  IC50: 0.0049 µM

## CC(C)(NC(=O)c1ccc2[nH]nc(NC(=O)c3ccc(N4CCOCC4)cc3)c2c1)c1cccs1 [Example 134, 3-(4-Morpholinobenzamido)-N-(2-(thiophen-2-yl)propan-2-yl)-1H-indazole-5-carboxamide]
TBK1
  IC50: 0.012 µM
IKKε
  IC50: 0.033 µM

## CCC(NC(=O)c1ccc2[nH]nc(NC(=O)c3ccc(N4CCNCC4)cc3)c2c1)c1cccs1 (stereo not drawn) [Example 102, 3-(4-(Piperazin-1-yl)benzamido)-N-(1-(thiophen-2-yl)propyl)-1H-indazole-5-carboxamide]
TBK1
  IC50: 0.0058 µM
IKKε
  IC50: 0.025 µM

## CN1CCN(c2ccc(C(=O)Nc3n[nH]c4ccc(C(=O)NCc5cccs5)cc34)cc2)CC1 [Example 149, 3-(4-(4-methylpiperazin-1-yl)benzamido)-N-(thiophen-2-ylmethyl)-1H-indazole-5-carboxamide]
TBK1
  IC50: 0.0075 µM
IKKε
  IC50: 0.032 µM

## CN1CCN(c2ccc(C(=O)Nc3n[nH]c4ccc(C(=O)C(C(=O)O)c5cccs5)cc34)cc2)CC1 (stereo not drawn) [Example 75, 3-(3-(4-(4-Methylpiperazin-1-yl)benzamido)-1H-indazol-5-yl)-3-oxo-2-(thiophen-2-yl)propanoic Acid]
TBK1
  IC50: 0.18 µM
IKKε
  IC50: 0.67 µM

## CC(C)CC(NC(=O)c1ccc2[nH]nc(NC(=O)c3ccc(N4CCN(C)CC4)cc3)c2c1)c1cccs1 (stereo not drawn) [Example 129, N-(3-Methyl-1-(thiophen-2-yl)butyl)-3-(4-(4-methylpiperazin-1-yl)benzamido)-1H-indazole-5-carboxamide]
TBK1
  IC50: 0.022 µM
IKKε
  IC50: 0.054 µM

## Cn1cc(C(=O)Nc2n[nH]c3ccc(C(=O)NCc4cccs4)cc23)cn1 [Example 7, 3-(1-Methyl-1H-pyrazole-4-carboxamido)-N-(thiophen-2-ylmethyl)-1H-indazole-5-carboxamide]
TBK1
  IC50: 0.16 µM
IKKε
  IC50: 0.25 µM

## CN1CCN(c2ccc(C(=O)Nc3n[nH]c4ccc(C(=O)NC(c5cccs5)C5CC5)cc34)cc2)CC1 (stereo not drawn) [Example 125, N-(Cyclopropyl(thiophen-2-yl)methyl)-3-(4-(4-methylpiperazin-1-yl)benzamido)-1H-indazole-5-carboxamide]
TBK1
  IC50: 0.026 µM
IKKε
  IC50: 0.037 µM

## CCCCNC(=O)c1ccc2[nH]nc(NC(=O)c3ccc(F)cc3)c2c1 [Example 24, N-Butyl-3-(4-fluorobenzamido)-1H-indazole-5-carboxamide]
TBK1
  IC50: 0.66 µM
IKKε
  IC50: 2.46 µM

## CC(NC(=O)c1ccc2[nH]nc(NC(=O)c3ccc(N4CCOCC4)cc3)c2c1)c1ccncc1 (stereo not drawn) [Example 132, 3-(4-Morpholinobenzamido)-N-(1-(pyridin-4-yl)ethyl)-1H-indazole-5-carboxamide]
TBK1
  IC50: 0.023 µM
IKKε
  IC50: 0.043 µM

## CCC(NC(=O)c1ccc2[nH]nc(NC(=O)c3ccc(N4C[C@@H](C)N[C@@H](C)C4)cc3)c2c1)c1cccs1 (stereo partly drawn) [Example 99, 3-(4-((3R,5S)-3,5-Dimethylpiperazin-1-yl)benzamido)-N-(1-(thiophen-2-yl)propyl)-1H-indazole-5-carboxamide 2,2,2-trifluoroacetate]
TBK1
  IC50: 0.0027 µM
IKKε
  IC50: 0.014 µM

## CCCCNC(=O)c1ccc2[nH]nc(NC(=O)c3ccc(N4CCOCC4)cc3)c2c1 [Example 115, N-Butyl-3-(4-morpholinobenzamido)-1H-indazole-5-carboxamide 2,2,2-trifluoroacetate]
TBK1
  IC50: 0.071 µM
IKKε
  IC50: 0.97 µM

## COCCCNc1ccc(C(=O)Nc2n[nH]c3ccc(C(=O)NCc4cccs4)cc23)cc1 [Example 151, 3-(4-((3-Methoxypropyl)amino)benzamido)-N-(thiophen-2-ylmethyl)-1H-indazole-5-carboxamide]
TBK1
  IC50: 0.0079 µM
IKKε
  IC50: 0.052 µM

## CC(NC(=O)c1ccc2[nH]nc(NC(=O)c3ccc(N4CCOCC4)cc3)c2c1)c1cccnc1 (stereo not drawn) [Example 52, 3-(4-Morpholinobenzamido)-N-(1-(pyridin-3-yl)ethyl)-1H-indazole-5-carboxamide]
TBK1
  IC50: 0.014 µM
IKKε
  IC50: > 10 µM

## CN1CCN(c2ccc(C(=O)Nc3n[nH]c4ccc(C(=O)NCc5cnco5)cc34)cc2)CC1 [Example 172, 3-(4-(4-Methylpiperazin-1-yl)benzamido)-N-(oxazol-5-ylmethyl)-1H-indazole-5-carboxamide]
TBK1
  IC50: 0.035 µM
IKKε
  IC50: 0.31 µM

## CCC(NC(=O)c1ccc2[nH]nc(NC(=O)c3ccc(N4CCOCC4)cc3)c2c1)c1cccs1 (stereo not drawn) [Example 54, 3-(4-Morpholinobenzamido)-N-(1-(thiophen-2-yl)propyl)-1H-indazole-5-carboxamide]
TBK1
  IC50: 0.00036 µM
IKKε
  IC50: 0.0031 µM

## CC(NC(=O)c1ccc2[nH]nc(NC(=O)c3ccc(N4CCOCC4)cc3)c2c1)c1ccccc1 (stereo not drawn) [Example 180, 3-(4-Morpholinobenzamido)-N-(1-phenylethyl)-1H-indazole-5-carboxamide]
TBK1
  IC50: 0.0023 µM
IKKε
  IC50: 0.12 µM

## CN1CCN(c2ccc(C(=O)Nc3n[nH]c4ccc(C(=O)NCc5ccon5)cc34)cc2)CC1 [Example 173, N-(Isoxazol-3-ylmethyl)-3-(4-(4-methylpiperazin-1-yl)benzamido)-1H-indazole-5-carboxamide]
TBK1
  IC50: 0.033 µM
IKKε
  IC50: 0.26 µM

## CC(NC(=O)c1ccc2[nH]nc(NC(=O)c3ccc(N4CCN(C)CC4)cc3)c2c1)c1ccccc1 (stereo not drawn) [Example 179, 3-(4-(4-Methylpiperazin-1-yl)benzamido)-N-(1-phenylethyl)-1H-indazole-5-carboxamide]
TBK1
  IC50: 0.0012 µM
IKKε
  IC50: 0.019 µM

## CN1CCN(c2ccc(C(=O)Nc3n[nH]c4ccc(C(=O)NCc5cccc(F)c5)cc34)cc2)CC1 [Example 195, N-(3-Fluorobenzyl)-3-(4-(4-methylpiperazin-1-yl)benzamido)-1H-indazole-5-carboxamide]
TBK1
  IC50: 0.0072 µM
IKKε
  IC50: 0.05 µM

## CCC(C)(NC(=O)c1ccc2[nH]nc(NC(=O)c3ccc(N4CCN(C)CC4)cc3)c2c1)c1cccs1 (stereo not drawn) [Example 131, 3-(4-(4-methylpiperazin-1-yl)benzamido)-N-(2-(thiophen-2-yl)butan-2-yl)-1H-indazole-5-carboxamide]
TBK1
  IC50: 0.03 µM
IKKε
  IC50: 0.14 µM

## C[C@H](NC(=O)c1ccc2[nH]nc(NC(=O)c3ccc(N4CCN(C)CC4)cc3)c2c1)c1ccccc1 [Example 176, (S)-3-(4-(4-Methylpiperazin-1-yl)benzamido)-N-(1-phenylethyl)-1H-indazole-5-carboxamide]
TBK1
  IC50: 0.058 µM
IKKε
  IC50: 0.34 µM

Source: US10294207B2, “Pyrazole derivatives as TNIK, IKKϵ and TBK1 inhibitor and pharmaceutical composition comprising same” (GREEN CROSS CORPORATION, priority 2015, dated 2019)
